Source: US9012651B2, “TRPV3 modulators” (AbbVie Inc., priority 2011, dated 2015)

target: human TRPV3 receptors (Homo sapiens (Human), UniProt Q8NET8); experiment: Calcium flux assay (FLIPR TETRA), inhibition of the 2-APB response; assay type: cell-based; settings: recombinant HEK293 cells stably expressing TRPV3, Calcium-4 dye, 2-APB at its EC80
Method: (i) In Vitro Methods-Calcium Flux Assays:
Experiments were conducted using the FLIPR^TETRA®. On the day prior to the experiment, recombinant HEK293 cells that stably express human and mouse TRPV3 were removed from tissue culture flasks and plated in growth medium at 20,000 cells/well into black-walled clear-bottom 384-well Biocoat™ poly-D-lysine assay plates (BD Biosciences, Bedford, Mass.) using a Multidrop® dispenser (ThermoScientific, Waltham, Mass.). […] Cells were incubated for 90-120 minutes in the dark. Compounds were dissolved in DMSO to prepare a 10 mM stock solution. The intensity of the fluorescence was captured and digitally transferred to an interfaced PC. The peak increase in fluorescence over baseline (relative fluorescence units) was calculated and expressed as the percentage of the maximal 2-APB (2-aminoethoxyldiphenyl borate) response (in the absence of compound).

human TRPV3 receptors, sequence (Q8NET8 whole entry): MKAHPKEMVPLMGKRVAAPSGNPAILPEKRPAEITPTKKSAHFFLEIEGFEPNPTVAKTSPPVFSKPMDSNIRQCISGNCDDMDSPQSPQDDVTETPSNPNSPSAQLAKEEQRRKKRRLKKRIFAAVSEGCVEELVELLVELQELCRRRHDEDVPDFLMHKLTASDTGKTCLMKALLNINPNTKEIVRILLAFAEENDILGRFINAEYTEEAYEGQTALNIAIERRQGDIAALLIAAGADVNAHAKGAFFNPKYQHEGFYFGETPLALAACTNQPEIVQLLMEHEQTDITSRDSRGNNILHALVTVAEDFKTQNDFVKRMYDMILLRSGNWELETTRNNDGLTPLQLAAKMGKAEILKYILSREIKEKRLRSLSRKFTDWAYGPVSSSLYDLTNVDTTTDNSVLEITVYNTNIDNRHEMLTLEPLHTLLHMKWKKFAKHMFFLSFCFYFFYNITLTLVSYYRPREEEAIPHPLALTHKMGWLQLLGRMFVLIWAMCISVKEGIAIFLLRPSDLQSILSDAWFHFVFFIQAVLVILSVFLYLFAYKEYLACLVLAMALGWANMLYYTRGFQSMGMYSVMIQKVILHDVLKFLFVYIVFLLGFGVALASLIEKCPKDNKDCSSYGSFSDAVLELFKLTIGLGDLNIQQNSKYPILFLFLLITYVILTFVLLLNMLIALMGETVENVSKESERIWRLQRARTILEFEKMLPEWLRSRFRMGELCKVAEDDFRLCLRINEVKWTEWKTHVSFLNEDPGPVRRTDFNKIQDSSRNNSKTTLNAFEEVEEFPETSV

Point of comparison: `CC(C)[C@H](CO)NCc1nc(N2CCc3ccc(F)cc3C2)ccc1F` [Example 98, (2R)-2-({[3-fluoro-6-(7-fluoro-3,4-dihydroisoquinolin-2(1H)-yl)pyridin-2-yl]methyl}amino)-3-methylbutan-1-ol], IC50 320 nM. Against it:
- OC[C@H](NCc1nc(-c2ccc(C(F)(F)F)cc2)ccc1F)C1CCCCC1 [Example 84, (2R)-2-cyclohexyl-2-[({3-fluoro-6-[4-(trifluoromethyl)phenyl]pyridin-2-yl}methyl)amino]ethanol] — 2.2-fold higher, 700 nM
- CC(C)(C)[C@H](CO)NCc1nc(-c2ccc(C(F)(F)F)cc2)ccc1F [Example 85, (2R)-2-((3-fluoro-6-(4-(trifluoromethyl)phenyl)pyridin-2-yl)methylamino)-3,3-dimethylbutan-1-ol] — 1.6-fold higher, 520 nM
- CC(O)C(C)NCc1nc(-c2ccc(C(F)(F)F)cc2)ccc1F (stereo not drawn) [Example 86, 3-[({3-fluoro-6-[4-(trifluoromethyl)phenyl]pyridin-2-yl}methyl)amino]butan-2-ol] — within 1.5-fold, 300 nM
- CCC[C@H](CO)NCc1nc(-c2ccc(C(F)(F)F)nc2)ccc1F [Example 87, (2R)-2-({[5-fluoro-6′-(trifluoromethyl)-2,3′-bipyridin-6-yl]methyl}amino)pentan-1-ol] — 9.7-fold higher, 3100 nM
- OC[C@H](NCc1nc(-c2ccc(C(F)(F)F)nc2)ccc1F)C1CCCCC1 [Example 88, (2R)-2-cyclohexyl-2-({[5-fluoro-6′-(trifluoromethyl)-2,3′-bipyridin-6-yl]methyl}amino)ethanol] — 1.8-fold higher, 570 nM
- CC(C)(C)[C@H](CO)NCc1nc(-c2ccc(C(F)(F)F)nc2)ccc1F [Example 89, (2R)-2-({[5-fluoro-6′-(trifluoromethyl)-2,3′-bipyridin-6-yl]methyl}amino)-3,3-dimethylbutan-1-ol] — 1.6-fold higher, 510 nM
- CC(O)C(C)NCc1nc(-c2ccc(C(F)(F)F)nc2)ccc1F (stereo not drawn) [Example 90, 3-({[5-fluoro-6′-(trifluoromethyl)-2,3′-bipyridin-6-yl]methyl}amino)butan-2-ol] — 8.1-fold higher, 2590 nM
- CC(C)[C@H](CO)NCc1ccnc(-c2ccc(C(F)(F)F)cc2)n1 [Example 91, (2R)-3-methyl-2-[({2-[4-(trifluoromethyl)phenyl]pyrimidin-4-yl}methyl)amino]butan-1-ol] — higher, > 20000 nM
- CC(C)[C@H](CO)NCc1nc(N2CCC(F)(F)CC2)ccc1F [Example 92, (2R)-2-({[6-(4,4-difluoropiperidin-1-yl)-3-fluoropyridin-2-yl]methyl}amino)-3-methylbutan-1-ol] — 3-fold higher, 960 nM
- CC(C)[C@H](CO)NCc1nc(N2Cc3ccc(F)cc3C2)ccc1F [Example 93, (2R)-2-({[3-fluoro-6-(5-fluoro-1,3-dihydro-2H-isoindol-2-yl)pyridin-2-yl]methyl}amino)-3-methylbutan-1-ol] — within 1.5-fold, 270 nM
- CC(C)[C@H](CO)NCc1nc(N2Cc3cccc(F)c3C2)ccc1F [Example 94, (2R)-2-({[3-fluoro-6-(4-fluoro-1,3-dihydro-2H-isoindol-2-yl)pyridin-2-yl]methyl}amino)-3-methylbutan-1-ol] — 2.7-fold lower, 120 nM
- CC(C)[C@H](CO)NCc1nc(N2Cc3cccc(Cl)c3C2)ccc1F [Example 95, (2R)-2-({[6-(4-chloro-1,3-dihydro-2H-isoindol-2-yl)-3-fluoropyridin-2-yl]methyl}amino)-3-methylbutan-1-ol] — within 1.5-fold, 340 nM
- CC(C)[C@H](CO)NCc1nc(N2Cc3ccc(C(F)(F)F)cc3C2)ccc1F [Example 96, (2R)-2-[({3-fluoro-6-[5-(trifluoromethyl)-1,3-dihydro-2H-isoindol-2-yl]pyridin-2-yl}methyl)amino]-3-methylbutan-1-ol] — within 1.5-fold, 330 nM
- CC(C)[C@H](CO)NCc1nc(N2CCc3c(F)cccc3C2)ccc1F [Example 97, (2R)-2-({[3-fluoro-6-(5-fluoro-3,4-dihydroisoquinolin-2(1H)-yl)pyridin-2-yl]methyl}amino)-3-methylbutan-1-ol] — 2.9-fold lower, 110 nM
- CC(C)[C@H](CO)NCc1nc(N2CCc3cccc(F)c3C2)ccc1F [Example 99, (2R)-2-({[3-fluoro-6-(8-fluoro-3,4-dihydroisoquinolin-2(1H)-yl)pyridin-2-yl]methyl}amino)-3-methylbutan-1-ol] — 2.3-fold lower, 140 nM
- CC(C)[C@H](CO)NCc1nc(N2CCc3cc(Cl)ccc3C2)ccc1F [Example 101, (2R)-2-({[6-(6-chloro-3,4-dihydroisoquinolin-2(1H)-yl)-3-fluoropyridin-2-yl]methyl}amino)-3-methylbutan-1-ol] — 1.6-fold higher, 500 nM
- CC(C)[C@H](CO)NCc1nc(N2CCc3c(cccc3C(F)(F)F)C2)ccc1F [Example 102, (2R)-2-[({3-fluoro-6-[5-(trifluoromethyl)-3,4-dihydroisoquinolin-2(1H)-yl]-pyridin-2-yl}methyl)amino]-3-methylbutan-1-ol] — within 1.5-fold, 350 nM
- CC(C)[C@H](CO)NCc1nc(N2CCc3ccc(C(F)(F)F)cc3C2)ccc1F [Example 103, (2R)-2-[({3-fluoro-6-[7-(trifluoromethyl)-3,4-dihydroisoquinolin-2(1H)-yl]-pyridin-2-yl}methyl)amino]-3-methylbutan-1-ol] — within 1.5-fold, 260 nM
- CC(C)[C@@H](NCc1nc(-c2ccc(C(F)(F)F)cc2)ccc1F)C(C)(C)O [Example 105, (3R)-3-[({3-fluoro-6-[4-(trifluoromethyl)phenyl]pyridin-2-yl}methyl)amino]-2,4-dimethylpentan-2-ol] — 8.6-fold higher, 2760 nM
- CC(C)[C@@H](NCc1nc(-c2ccc(C(F)(F)F)nc2)ccc1F)C(C)(C)O [Example 106, (3R)-3-({[5-fluoro-6′-(trifluoromethyl)-2,3′-bipyridin-6-yl]methyl}amino)-2,4-dimethylpentan-2-ol] — 3.9-fold higher, 1260 nM
- CC(C)[C@@H](NCc1nc(-c2ccc(C(F)(F)F)cc2)ccc1F)C(C)O (stereo partly drawn) [Example 107, (3R)-3-[({3-fluoro-6-[4-(trifluoromethyl)phenyl]pyridin-2-yl}methyl)amino]-4-methylpentan-2-ol] — 2.2-fold higher, 700 nM
- CC(C)[C@@H](NCc1nc(-c2ccc(C(F)(F)F)nc2)ccc1F)C(C)O (stereo partly drawn) [Example 108, (3R)-3-({[5-fluoro-6′-(trifluoromethyl)-2,3′-bipyridin-6-yl]methyl}amino)-4-methylpentan-2-ol] — 1.7-fold higher, 540 nM
- CC(C)[C@H](CO)NCc1ccc(F)c(-c2ccc(C(F)(F)F)nc2)n1 [Example 109, (2R)-2-({[3-fluoro-6′-(trifluoromethyl)-2,3′-bipyridin-6-yl]methyl}amino)-3-methylbutan-1-ol] — 11-fold higher, 3590 nM
- CC(C)[C@H](CO)NCc1nc(-c2ccc(C(F)(F)F)nc2)ccc1Cl [Example 110, (2R)-2-({[5-chloro-6′-(trifluoromethyl)-2,3′-bipyridin-6-yl]methyl}amino)-3-methylbutan-1-ol] — 2-fold higher, 630 nM
- Cc1ccc(-c2ccc(C(F)(F)F)nc2)nc1CN[C@@H](CO)C(C)C [Example 111, (2R)-3-methyl-2-({[5-methyl-6′-(trifluoromethyl)-2,3′-bipyridin-6-yl]methyl}amino)butan-1-ol] — 3.3-fold higher, 1070 nM
- COc1ccc(-c2ccc(C(F)(F)F)nc2)nc1CN[C@@H](CO)C(C)C [Example 112, (2R)-2-({[5-methoxy-6′-(trifluoromethyl)-2,3′-bipyridin-6-yl]methyl}amino)-3-methylbutan-1-ol] — 48-fold higher, 15300 nM
- CC(C)[C@H](CO)NCc1nc(-c2cnc(C(F)(F)F)nc2)ccc1F [Example 113, (2R)-2-[({3-fluoro-6-[2-(trifluoromethyl)pyrimidin-5-yl]pyridin-2-yl}methyl)amino]-3-methylbutan-1-ol] — 8.3-fold higher, 2650 nM
- CC(C)[C@H](CO)NCc1nc(-c2cnc(OCC(F)(F)F)nc2)ccc1F [Example 114, (2R)-2-[({3-fluoro-6-[2-(2,2,2-trifluoroethoxy)pyrimidin-5-yl]pyridin-2-yl}methyl)amino]-3-methylbutan-1-ol] — 7.3-fold higher, 2330 nM
- CC[C@@H](NCc1nc(-c2ccc(C(F)(F)F)nc2)ccc1F)C(C)O (stereo partly drawn) [Example 115, (3R)-3-({[5-fluoro-6′-(trifluoromethyl)-2,3′-bipyridin-6-yl]methyl}amino)pentan-2-ol] — 1.6-fold higher, 510 nM
- CC(C)[C@@H](NCc1nc(-c2ccc(C(F)(F)F)cc2)ccc1F)C(N)=O [Example 116, (R)-2-((3-fluoro-6-(4-(trifluoromethyl)phenyl)pyridin-2-yl)methylamino)-3-methylbutanamide] — higher, > 20000 nM
- CC(C)[C@@H](NCc1nc(-c2ccc(C(F)(F)F)nc2)ccc1F)C(N)=O [Example 117, (R)-2-((5-fluoro-6′-(trifluoromethyl)-2,3′-bipyridin-6-yl)methylamino)-3-methylbutanamide] — higher, > 20000 nM
- CC(C)[C@H](CO)NCc1cc(C(F)(F)F)cc(-c2ccc(C(F)(F)F)nc2)n1 [Example 118, (2R)-2-({[4,6′-bis(trifluoromethyl)-2,3′-bipyridin-6-yl]methyl}amino)-3-methylbutan-1-ol] — higher, > 20000 nM
- CC(C)[C@H](NCc1nc(-c2ccc(C(F)(F)F)nc2)ccc1F)C(N)=O [Example 119, (S)-2-((5-fluoro-6′-(trifluoromethyl)-2,3′-bipyridin-6-yl)methylamino)-3-methylbutanamide] — higher, > 20000 nM
- C[C@@H](O)[C@H](NCc1nc(-c2ccc(C(F)(F)F)nc2)ccc1F)C(N)=O [Example 120, (2S,3R)-2-((5-fluoro-6′-(trifluoromethyl)-2,3′-bipyridin-6-yl)methylamino)-3-hydroxybutanamide] — higher, > 20000 nM
- C[C@@H](O)[C@@H](CO)NCc1nc(-c2ccc(C(F)(F)F)nc2)ccc1F [Example 121, (2R,3R)-2-({[5-fluoro-6′-(trifluoromethyl)-2,3′-bipyridin-6-yl]methyl}amino)butane-1,3-diol] — 19-fold higher, 6180 nM
